Measurements taken from patent US6737383B1, “Herbicidal oxadiazolidines” (priority 1999, dated 2004).

Columns and labels:
giant foxtail = assay: Test B pre/postemergence giant foxtail; format: in vivo, Setaria faberii
Method in brief: (§1)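 Response is a visual 0-to-10 score relative to untreated plants, where 0 means no effect and 10 means complete control, taken twelve to sixteen days after application. Treatments went onto soil at planting and onto foliage of 1- to 4-leaf plants, using a surfactant-containing non-phytotoxic solvent.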

rape = assay: Test B pre/postemergence rape; format: in vivo, Brassica napus
Method in brief: as §1

duck salad = assay: Test B flood test duck salad; format: in vivo, Heteranthera limosa
Method in brief: (§2)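 Flood test on plants grown to the 2-leaf stage; treated plants kept in greenhouse twelve to sixteen days, then visually rated against controls on a 0 (no effect) to 10 (complete control) scale.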

wild oat = assay: Test B pre/postemergence wild oat; format: in vivo, Avena fatua
Method in brief: as §1

velvetleaf = assay: Test B pre/postemergence velvetleaf; format: in vivo, Abutilon theophrasti
Method in brief: as §1

corn = assay: Test B pre/postemergence corn; format: in vivo, Zea mays
Method in brief: as §1

sugar beet = assay: Test B pre/postemergence sugar beet; format: in vivo, Beta vulgaris
Method in brief: as §1

rice = assay: Test B flood test rice; format: in vivo, Oryza sativa
Method in brief: as §2

smallflower flatsedge = assay: Test B flood test smallflower flatsedge; format: in vivo, Cyperus difformis
Method in brief: as §2

soybean = assay: Test B pre/postemergence soybean; format: in vivo, Glycine max
Method in brief: as §1

surinam grass = assay: Test B pre/postemergence surinam grass; format: in vivo, Brachiaria decumbens
Method in brief: as §1

cocklebur = assay: Test B pre/postemergence cocklebur; format: in vivo, Xanthium strumarium
Method in brief: as §1

bedstraw = assay: Test B pre/postemergence bedstraw; format: in vivo, Galium aparine
Method in brief: as §1

morningglory = assay: Test B pre/postemergence morningglory; format: in vivo, Ipomoea hederacea
Method in brief: as §1

crabgrass = assay: Test B pre/postemergence crabgrass; format: in vivo, Digitaria sanguinalis
Method in brief: as §1

wheat = assay: Test B pre/postemergence wheat; format: in vivo, Triticum aestivum
Method in brief: as §1

blackgrass = assay: Test B pre/postemergence blackgrass; format: in vivo, Alopecurus myosuroides
Method in brief: as §1

bamyardgrass = assay: Test B flood test barnyardgrass; format: in vivo, Echinochloa crus-galli
Method in brief: as §2

pigweed = assay: Test B pre/postemergence pigweed; format: in vivo, Amaranthus retroflexus
Method in brief: as §1

purple nutsedge = assay: Test B pre/postemergence purple nutsedge; format: in vivo, Cyperus rotundus; conditions: Preemergence
Method in brief: as §1

[1] = Postemergence, Rate 250 g/ha, scale 0 to 10, 0 no effect, 10 complete control
[2] = Postemergence, Rate 1000 g/ha, scale 0 to 10 (0 no effect, 10 complete control)
[3] = Preemergence, Rate 125 g/ha, scale 0 to 10 (0 no effect, 10 complete control)
[4] = Preemergence, Rate 250 g/ha, scale of 0 to 10 where 0 is no effect and 10 is complete control
[5] = Preemergence, Rate 500 g/ha, scale 0 (no effect) to 10 (complete control)
[6] = Rate 125 g/ha, Postemergence, scale 0 to 10, 0 no effect, 10 complete control
[7] = Rate 500 g/ha, Postemergence, 0 to 10 scale (0 no effect, 10 complete control)
[8] = Rate 1000 g/ha, Preemergence, scale 0 to 10 (0 no effect, 10 complete control)
[9] = Rate 125 g/ha, Postemergence section (flood test species), scale 0 to 10, 0 no effect, 10 complete control
[10] = Rate 500 g/ha, Postemergence section of Table B, 0 to 10 scale (0 no effect, 10 complete control)
[11] = flood test, listed under Postemergence, Rate 250 g/ha, scale 0 to 10, 0 no effect, 10 complete control

CC(C)N(C(=O)n1oc(=O)n(-c2ccccc2Cl)c1=O)c1ccc(F)cc1 [Compound 8]
Giant foxtail plant response rating (giant foxtail; [1]): 0
Giant foxtail plant response rating (giant foxtail; [2]): 4
Plant response rating, Giant foxtail (giant foxtail; [3]): 5
Plant response rating, Giant foxtail (giant foxtail; [4]): 9
Giant foxtail plant response rating (giant foxtail; [5]): 10
Giant foxtail plant response rating (giant foxtail; [6]): 0
Giant foxtail plant response rating (giant foxtail; [7]): 2
Plant response rating, Giant foxtail (giant foxtail; [8]): 10
Rape plant response rating (rape; [1]): 0
Rape plant response rating (rape; [2]): 0
Plant response rating, Rape (rape; [3]): 0
Plant response rating, Rape (rape; [4]): 0
Rape plant response rating (rape; [5]): 0
Rape plant response rating (rape; [6]): 0
Rape plant response rating (rape; [7]): 0
Plant response rating, Rape (rape; [8]): 0
Ducksalad plant response rating (duck salad; [2]): 0
Ducksalad plant response rating (duck salad; [9]): 0
Ducksalad plant response rating (duck salad; [10]): 0
Ducksalad plant response rating (duck salad; [11]): 0
Wild oats plant response rating (wild oat; [1]): 0
Wild oats plant response rating (wild oat; [2]): 3
Plant response rating, Wild oats (wild oat; [3]): 0
Plant response rating, Wild oats (wild oat; [4]): 0
Wild oats plant response rating (wild oat; [5]): 2
Wild oats plant response rating (wild oat; [6]): 0
Plant response rating, Wild oats (wild oat; [8]): 3
Velvetleaf plant response rating (velvetleaf; [1]): 0
Velvetleaf plant response rating (velvetleaf; [2]): 1
Plant response rating, Velvetleaf (velvetleaf; [3]): 0
Velvetleaf plant response rating (velvetleaf; [5]): 0
Velvetleaf plant response rating (velvetleaf; [6]): 0
Plant response rating, Velvetleaf (velvetleaf; [8]): 4
Corn plant response rating (corn; [1]): 0
Corn plant response rating (corn; [2]): 3
Plant response rating, Corn (corn; [3]): 0
Plant response rating, Corn (corn; [4]): 0
Corn plant response rating (corn; [5]): 0
Corn plant response rating (corn; [6]): 0
Corn plant response rating (corn; [7]): 0
Plant response rating, Corn (corn; [8]): 3
Sugarbeets plant response rating (sugar beet; [1]): 0
Sugarbeets plant response rating (sugar beet; [2]): 2
Plant response rating, Sugarbeets (sugar beet; [3]): 0
Plant response rating, Sugarbeets (sugar beet; [4]): 0
Sugarbeets plant response rating (sugar beet; [5]): 0
Sugarbeets plant response rating (sugar beet; [6]): 0
Plant response rating, Sugarbeets (sugar beet; [8]): 0
Rice plant response rating (rice; [2]): 0
Rice plant response rating (rice; [9]): 0
Rice plant response rating (rice; [10]): 0
Rice plant response rating (rice; [11]): 0
S. Flatsedge plant response rating (smallflower flatsedge; [2]): 0
S. Flatsedge plant response rating (smallflower flatsedge; [9]): 0
S. Flatsedge plant response rating (smallflower flatsedge; [11]): 0
Soybean plant response rating (soybean; [1]): 4
Soybean plant response rating (soybean; [2]): 5
Plant response rating, Soybean (soybean; [3]): 0
Plant response rating, Soybean (soybean; [4]): 0
Soybean plant response rating (soybean; [5]): 0
Soybean plant response rating (soybean; [6]): 3
Plant response rating, Soybean (soybean; [8]): 0
B. signalgrass plant response rating (surinam grass; [1]): 0
B. signalgrass plant response rating (surinam grass; [2]): 3
Plant response rating, B. signalgrass (surinam grass; [3]): 0
Plant response rating, B. signalgrass (surinam grass; [4]): 4
B. signalgrass plant response rating (surinam grass; [5]): 5
B. signalgrass plant response rating (surinam grass; [6]): 0
B. signalgrass plant response rating (surinam grass; [7]): 0
Plant response rating, B. signalgrass (surinam grass; [8]): 6
Cocklebur plant response rating (cocklebur; [1]): 0
Cocklebur plant response rating (cocklebur; [2]): 2
Plant response rating, Cocklebur (cocklebur; [3]): 0
Plant response rating, Cocklebur (cocklebur; [4]): 0
Cocklebur plant response rating (cocklebur; [5]): 0
Cocklebur plant response rating (cocklebur; [6]): 0
Cocklebur plant response rating (cocklebur; [7]): 1
Plant response rating, Cocklebur (cocklebur; [8]): 0
Bedstraw plant response rating (bedstraw; [1]): 2
Bedstraw plant response rating (bedstraw; [2]): 3
Plant response rating, Bedstraw (bedstraw; [3]): 0
Plant response rating, Bedstraw (bedstraw; [4]): 0
Bedstraw plant response rating (bedstraw; [5]): 0
Bedstraw plant response rating (bedstraw; [6]): 2
Bedstraw plant response rating (bedstraw; [7]): 3
Plant response rating, Bedstraw (bedstraw; [8]): 0
Morningglory plant response rating (morningglory; [1]): 0
Morningglory plant response rating (morningglory; [2]): 6
Plant response rating, Morningglory (morningglory; [3]): 0
Plant response rating, Morningglory (morningglory; [4]): 0
Morningglory plant response rating (morningglory; [5]): 0
Morningglory plant response rating (morningglory; [6]): 0
Morningglory plant response rating (morningglory; [7]): 2
Plant response rating, Morningglory (morningglory; [8]): 0
Crabgrass plant response rating (crabgrass; [1]): 0
Crabgrass plant response rating (crabgrass; [2]): 6
Crabgrass plant response rating (crabgrass; [5]): 6
Crabgrass plant response rating (crabgrass; [6]): 0
Crabgrass plant response rating (crabgrass; [7]): 0
Plant response rating, Crabgrass (crabgrass; [8]): 9
Wheat plant response rating (wheat; [1]): 0
Wheat plant response rating (wheat; [2]): 3
Plant response rating, Wheat (wheat; [3]): 0
Plant response rating, Wheat (wheat; [4]): 0
Wheat plant response rating (wheat; [5]): 0
Wheat plant response rating (wheat; [6]): 0
Plant response rating, Wheat (wheat; [8]): 0
Blackgrass plant response rating (blackgrass; [1]): 2
Blackgrass plant response rating (blackgrass; [2]): 5
Plant response rating, Blackgrass (blackgrass; [3]): 0
Plant response rating, Blackgrass (blackgrass; [4]): 0
Blackgrass plant response rating (blackgrass; [5]): 0
Blackgrass plant response rating (blackgrass; [6]): 0
Blackgrass plant response rating (blackgrass; [7]): 2
Plant response rating, Blackgrass (blackgrass; [8]): 4
Barnyardgrass plant response rating (bamyardgrass; [2]): 0
Barnyardgrass plant response rating (bamyardgrass; [9]): 0
Barnyardgrass plant response rating (bamyardgrass; [10]): 0
Barnyardgrass plant response rating (bamyardgrass; [11]): 0
Redroot pigweed plant response rating (pigweed; [1]): 0
Redroot pigweed plant response rating (pigweed; [2]): 5
Plant response rating, Redroot pigweed (pigweed; [3]): 4
Plant response rating, Redroot pigweed (pigweed; [4]): 5
Redroot pigweed plant response rating (pigweed; [5]): 5
Redroot pigweed plant response rating (pigweed; [6]): 0
Redroot pigweed plant response rating (pigweed; [7]): 0
Plant response rating, Redroot pigweed (pigweed; [8]): 7
Plant response rating, Nutsedge (purple nutsedge; Rate 125 g/ha, scale 0 to 10 (0 no effect, 10 complete control)): 0
Plant response rating, Nutsedge (purple nutsedge; Rate 250 g/ha, scale of 0 to 10 where 0 is no effect and 10 is complete control): 0
Nutsedge plant response rating (purple nutsedge; Rate 500 g/ha, scale 0 (no effect) to 10 (complete control)): 0
Plant response rating, Nutsedge (purple nutsedge; Rate 1000 g/ha, scale 0 to 10 (0 no effect, 10 complete control)): 0
